In publication PMC5242521 (PLoS ONE, 2017):
Where “and” joins values, the source holds several entries; their conditions need not be identical. Identical values can stand only once.

Assays:
OCT1 [1] = target: T1, OCT1 (Homo sapiens, UniProt O15245); assay: OCT1 activity: DAPI accumulation in HEK-OCT1 cells; conditions: for effect on OCT1 activity: pyrethroid 100 μM, DAPI; for inhibition at 100 μM: human
T1 sequence (O15245 1-554): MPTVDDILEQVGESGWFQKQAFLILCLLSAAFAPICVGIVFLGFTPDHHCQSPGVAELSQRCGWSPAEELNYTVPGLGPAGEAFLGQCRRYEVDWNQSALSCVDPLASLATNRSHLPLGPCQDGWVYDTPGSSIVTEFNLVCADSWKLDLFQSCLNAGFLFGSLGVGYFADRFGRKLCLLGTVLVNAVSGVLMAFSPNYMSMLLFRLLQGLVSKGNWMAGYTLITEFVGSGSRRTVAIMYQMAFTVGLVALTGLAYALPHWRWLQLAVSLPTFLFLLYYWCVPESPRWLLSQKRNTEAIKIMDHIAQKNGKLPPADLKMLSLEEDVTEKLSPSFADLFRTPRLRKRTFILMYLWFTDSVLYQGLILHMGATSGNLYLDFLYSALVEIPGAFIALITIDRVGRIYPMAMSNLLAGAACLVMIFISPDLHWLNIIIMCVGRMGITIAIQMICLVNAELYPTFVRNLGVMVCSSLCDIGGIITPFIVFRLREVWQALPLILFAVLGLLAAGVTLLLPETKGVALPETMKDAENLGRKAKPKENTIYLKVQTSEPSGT
Protocol: (§1) The effects of pyrethroids on activity of ABC and SLC transporters were determined through measuring cellular accumulation or retention of fluorescent or radiolabeled reference substrates for transporters, in the presence or absence of reference inhibitors, as previously described. The nature of cells and reference substrates and inhibitors used for transport assays are summarized in S3 Table.
(§2) The nature of substrates and reference inhibitors and the incubation times with substrates, that varied according to the transporter, were selected in agreement with previous studies and are indicated in S3 Table. The total incubation volume with substrates was 200 μL/well. […] An aliquot of cell lysate (5 μL) was then taken for determining cellular protein content by the Bradford method.
(§3) Intracellular concentrations of reference substrates were initially expressed as fluorescence arbitrary units (for fluorescent dye substrates) or as moles (for radiolabeled substrates) and normalized to cellular protein content, determined by the Bradford method. They were finally used for calculating percentage of transporter activity, according to the following equations [41, 45]: %ABCtransporter activity=([Substrateref inh]-[Substratepyrethroid])×100/([Substrateref inh]-[Substratecontrol]) (1) %SLC transporter activity=([Substratepyrethroid]-[Substratref inh])×100/([Substratecontrol]-[Substrateref inh]) (2) with [Substratepyrethroid] = cellular concentration of reference substrate in the presence of pyrethroid, [Substrateref inh] = cellular concentration of reference substrate in the presence of reference inhibitor and [Substratecontrol] = cellular concentration of reference substrate in control cells not exposed to pyrethroid or reference inhibitor.
(§4) The initial tested concentration of pyrethroids was 100 μM. […] Such concentrations were calculated using GraphPad Prism software (GraphPad Software, La Jolla, CA), through nonlinear regression based on the four parameter logistic function using the following equations: […]

OAT1 = target: T2, OAT1 (Homo sapiens, UniProt Q4U2R8); assay: OAT1 activity: fluorescein accumulation in HEK-OAT1 cells; assay type: cell-based; conditions: human, pH 7.4; pyrethroid 100 μM; HEK-OAT1 cells, fluorescein
T2 construct: host or cells: HEK293
T2 sequence (Q4U2R8 1-563): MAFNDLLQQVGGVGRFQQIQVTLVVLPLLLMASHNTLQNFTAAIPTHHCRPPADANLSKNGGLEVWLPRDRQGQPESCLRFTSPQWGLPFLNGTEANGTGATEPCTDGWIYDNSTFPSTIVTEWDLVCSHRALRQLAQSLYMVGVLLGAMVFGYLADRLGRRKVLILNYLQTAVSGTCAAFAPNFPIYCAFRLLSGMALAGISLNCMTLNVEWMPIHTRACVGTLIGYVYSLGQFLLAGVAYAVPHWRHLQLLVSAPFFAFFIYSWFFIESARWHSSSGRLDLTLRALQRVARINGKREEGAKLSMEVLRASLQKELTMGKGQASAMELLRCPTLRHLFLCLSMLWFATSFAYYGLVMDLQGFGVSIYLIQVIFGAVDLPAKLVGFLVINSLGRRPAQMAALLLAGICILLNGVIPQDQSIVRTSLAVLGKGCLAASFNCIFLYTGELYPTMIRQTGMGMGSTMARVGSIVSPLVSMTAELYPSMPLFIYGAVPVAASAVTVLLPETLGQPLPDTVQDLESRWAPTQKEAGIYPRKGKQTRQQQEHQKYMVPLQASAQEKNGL
Protocol: The effects of pyrethroids on activity of ABC and SLC transporters were determined through measuring cellular accumulation or retention of fluorescent or radiolabeled reference substrates for transporters, in the presence or absence of reference inhibitors, as previously described [41].
The total incubation volume with substrates was 200 μL/well. […] An aliquot of cell lysate (5 μL) was then taken for determining cellular protein content by the Bradford method [44].
Intracellular concentrations of reference substrates were initially expressed as fluorescence arbitrary units (for fluorescent dye substrates) or as moles (for radiolabeled substrates) and normalized to cellular protein content, determined by the Bradford method [44]. They were finally used for calculating percentage of transporter activity, according to the following equations [41, 45]: %ABCtransporter activity=([Substrateref inh]-[Substratepyrethroid])×100/([Substrateref inh]-[Substratecontrol]) (1) %SLC transporter activity=([Substratepyrethroid]-[Substratref inh])×100/([Substratecontrol]-[Substrateref inh]) (2) with [Substratepyrethroid] = cellular concentration of reference substrate in the presence of pyrethroid, [Substrateref inh] = cellular concentration of reference substrate in the presence of reference inhibitor and [Substratecontrol] = cellular concentration of reference substrate in control cells not exposed to pyrethroid or reference inhibitor.

OAT3 = target: T3, OAT3 (Homo sapiens, UniProt Q8TCC7); assay: OAT3 activity: fluorescein accumulation in HEK-OAT3 cells; conditions: human, pH 7.4
T3 sequence (Q8TCC7 1-542): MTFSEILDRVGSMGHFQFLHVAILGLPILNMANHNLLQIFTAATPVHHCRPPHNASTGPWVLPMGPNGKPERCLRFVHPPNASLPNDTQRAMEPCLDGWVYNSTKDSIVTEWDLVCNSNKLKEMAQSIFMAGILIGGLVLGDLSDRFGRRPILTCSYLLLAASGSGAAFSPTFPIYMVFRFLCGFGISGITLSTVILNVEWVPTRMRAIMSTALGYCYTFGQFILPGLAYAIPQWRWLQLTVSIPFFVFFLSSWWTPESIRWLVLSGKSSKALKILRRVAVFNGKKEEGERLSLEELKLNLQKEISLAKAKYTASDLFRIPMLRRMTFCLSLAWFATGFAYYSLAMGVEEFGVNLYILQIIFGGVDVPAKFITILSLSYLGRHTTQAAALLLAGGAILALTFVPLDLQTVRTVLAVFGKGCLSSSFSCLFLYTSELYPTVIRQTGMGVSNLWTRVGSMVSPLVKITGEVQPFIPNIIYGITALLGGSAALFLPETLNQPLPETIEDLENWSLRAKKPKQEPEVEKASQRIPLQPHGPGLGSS
Protocol: as §1
(§5) For accumulation assays (performed for all transporters, excepted BCRP), transporter-expressing cells usually cultured in 48-well plates were first incubated at 37°C with reference substrates in the absence (control) or presence of pyrethroids or reference inhibitors, in a well-defined transport assay medium, consisting of 136 mM NaCl, 5.3 mM KCl, 1.1mM KH2PO4, 0.8 mM MgSO4, 1.8 mM CaCl2, 10 mM HEPES, 11 mM D-glucose and adjusted to pH = 7.4 (excepted for MATE transporter assays, for which pH was set to 8.4). The nature of substrates and reference inhibitors and the incubation times with substrates, that varied according to the transporter, were selected in agreement with previous studies and are indicated in S3 Table. The total incubation volume with substrates was 200 μL/well. After washing twice in phosphate-buffered saline (PBS) (200 μL/well/washing), cells were lysed in distilled water (155 μL/well). An aliquot of cell lysate (5 μL) was then taken for determining cellular protein content by the Bradford method. The rest of lysate (150 μL/well) was used for measuring intracellular accumulation of reference substrates by scintillation counting or spectrofluorimetry using a SpectraMax Gemini SX spectrofluorometer (Molecular Devices, Sunnyvale, CA, USA) (excitation and emission wavelengths were 485 and 535 nm, respectively, for rhodamine 123 and fluorescein, and 355 and 460 nm, respectively, for DAPI).
as §3, §4

OCT2 = target: T4, OCT2 (Homo sapiens, UniProt O15244); assay: OCT2 activity: rhodamine 123 accumulation in HEK-OCT2 cells; conditions: human
T4 sequence (O15244 1-555): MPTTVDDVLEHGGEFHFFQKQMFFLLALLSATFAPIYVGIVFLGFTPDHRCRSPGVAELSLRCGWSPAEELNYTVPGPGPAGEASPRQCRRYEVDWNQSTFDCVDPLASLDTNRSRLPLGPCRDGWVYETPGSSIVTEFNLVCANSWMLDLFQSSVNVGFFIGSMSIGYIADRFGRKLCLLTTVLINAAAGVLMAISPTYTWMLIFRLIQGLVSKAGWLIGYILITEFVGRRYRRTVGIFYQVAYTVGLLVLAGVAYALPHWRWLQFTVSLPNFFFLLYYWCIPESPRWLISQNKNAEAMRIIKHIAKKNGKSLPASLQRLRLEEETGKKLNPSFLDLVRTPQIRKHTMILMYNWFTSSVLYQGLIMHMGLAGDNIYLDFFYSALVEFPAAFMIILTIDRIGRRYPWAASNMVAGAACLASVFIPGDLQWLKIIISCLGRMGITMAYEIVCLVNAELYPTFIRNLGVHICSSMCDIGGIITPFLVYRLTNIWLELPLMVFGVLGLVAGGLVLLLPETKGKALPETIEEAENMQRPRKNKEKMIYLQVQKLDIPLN
Protocol: as §1, §2, §3, §4

[2] = design: method as in PMID 12708229; conditions: human subjects environmentally exposed; ref [70]; cited from earlier work
OCT1 [3] = target: T1, OCT1; assay: Trans-stimulation assay of TEA uptake in OCT1-transfected HEK293 cells; assay type: cell-based; conditions: pre-loading 60 min with 100 μM pyrethroid or 2 mM unlabeled TEA; HEK-OCT1 cells
Protocol: Trans-stimulation assays were performed as previously described. Briefly, OCT1-transfected HEK293 cells were first preloaded with 2 mM unlabeled TEA or 100 μM pyrethroid for 60 min at 37°c in the transport assay medium described above. After washing twice with PBS, cells were next re-incubated in transport assay medium containing 29 μM [1-^14C]-TEA for 5 min at 37°C. After washing twice with PBS, cells were lysed in distilled water and intracellular accumulation of [1-^14C]-TEA was then determined by scintillation counting.
Intracellular accumulation of TEA was then determined by scintillation counting. […] After washing, cells were next re-incubated with 29 μM [1-^14C]-TEA for 5 min at 37°C. Intracellular accumulation of [1-^14C]-TEA was then determined by scintillation counting.

P-gp [4] = target: P-gp (Homo sapiens, UniProt P08183); assay: P-gp activity: rhodamine 123 accumulation in MCF7R cells; conditions: pyrethroid 100 μM
Protocol: as §1, §5, §3, §4

P-gp [5] = conditions: ref [26], [27]; cited from earlier work
[6] = HEK-OCT2 cells, pH 7.4, probe rhodamine 123

Chain of P-gp (Homo sapiens, UniProt P08183) (P08183 whole entry): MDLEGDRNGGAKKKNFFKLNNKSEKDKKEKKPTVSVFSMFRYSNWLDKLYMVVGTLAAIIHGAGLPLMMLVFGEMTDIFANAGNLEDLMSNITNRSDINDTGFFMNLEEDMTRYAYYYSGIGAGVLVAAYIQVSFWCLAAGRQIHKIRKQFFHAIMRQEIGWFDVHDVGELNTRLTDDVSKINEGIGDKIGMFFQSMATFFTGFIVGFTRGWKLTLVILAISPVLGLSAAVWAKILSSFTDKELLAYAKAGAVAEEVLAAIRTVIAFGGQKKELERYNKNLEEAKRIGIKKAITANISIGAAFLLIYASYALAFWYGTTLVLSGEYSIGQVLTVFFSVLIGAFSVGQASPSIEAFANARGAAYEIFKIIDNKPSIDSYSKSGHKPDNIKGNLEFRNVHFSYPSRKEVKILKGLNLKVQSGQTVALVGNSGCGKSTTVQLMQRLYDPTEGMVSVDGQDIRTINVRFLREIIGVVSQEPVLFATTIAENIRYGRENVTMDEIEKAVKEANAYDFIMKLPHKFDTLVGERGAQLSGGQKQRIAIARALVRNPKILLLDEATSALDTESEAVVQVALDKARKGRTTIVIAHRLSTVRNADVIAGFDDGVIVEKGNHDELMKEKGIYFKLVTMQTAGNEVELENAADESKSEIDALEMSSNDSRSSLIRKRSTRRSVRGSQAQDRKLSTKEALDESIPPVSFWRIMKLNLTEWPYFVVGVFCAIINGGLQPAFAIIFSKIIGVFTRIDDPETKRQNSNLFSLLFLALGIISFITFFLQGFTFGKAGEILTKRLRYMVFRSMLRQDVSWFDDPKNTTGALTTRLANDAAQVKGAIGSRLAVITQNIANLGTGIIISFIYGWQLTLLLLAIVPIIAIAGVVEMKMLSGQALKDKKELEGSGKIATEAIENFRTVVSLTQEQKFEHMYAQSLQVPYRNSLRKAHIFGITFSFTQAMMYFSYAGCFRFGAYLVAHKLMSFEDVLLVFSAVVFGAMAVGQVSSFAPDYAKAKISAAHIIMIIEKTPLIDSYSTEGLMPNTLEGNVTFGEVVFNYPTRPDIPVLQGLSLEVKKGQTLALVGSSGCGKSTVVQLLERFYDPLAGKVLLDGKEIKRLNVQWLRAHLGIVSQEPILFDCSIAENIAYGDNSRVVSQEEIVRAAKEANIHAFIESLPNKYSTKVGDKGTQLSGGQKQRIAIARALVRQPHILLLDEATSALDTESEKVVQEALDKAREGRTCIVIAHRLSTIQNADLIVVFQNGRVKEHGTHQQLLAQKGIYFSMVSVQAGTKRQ

In the case of `CC1(C)[C@H](C(=O)OCc2cccc(Oc3ccccc3)c2)[C@@H]1C=C(Cl)Cl` [cis-permethrin], the “effect on OCT1 activity” value (OCT1 [1]) was “failed to significantly alter”.

Compound `CC1(C)[C@H](C(=O)O[C@H](C#N)c2cccc(Oc3ccccc3)c2)[C@@H]1/C=C(\Cl)C(F)(F)F` (racemic) [λ-cyhalothrin] has an inhibition at 100 μM (OCT1 [1]; pH 7.4) of 30.1 to 48.8%.

In the case of `CC(C)[C@@H](Nc1ccc(C(F)(F)F)cc1Cl)C(=O)OC(C#N)c1cccc(Oc2ccccc2)c1` (some centres unmarked) [τ-fluvalinate], the inhibition at 100 μM (OAT1) was 42.8%, the inhibition at 100 μM (OAT3) was 15.6% and the “effect on OCT1 activity” value (OCT1 [1]) was “failed to significantly alter”. It also gave an inhibition at 100 μM (OCT2; pH 7.4) of about 25%.

Work on `CC1(C)[C@H](C=C(Cl)Cl)[C@H]1C(=O)OCc1cccc(Oc2ccccc2)c1` [trans-permethrin] yielded an inhibition at 100 μM (OCT1 [1]; pH 7.4) of 30.1 to 48.8% and an inhibition at 100 μM (OCT2; [6]) of about 25%.

`Cc1c(F)c(F)c(COC(=O)[C@@H]2[C@H](/C=C(\Cl)C(F)(F)F)C2(C)C)c(F)c1F` (racemic) [tefluthrin] gave an inhibition at 100 μM (OCT1 [1]; pH 7.4) of 30.1 to 48.8% and an inhibition at 100 μM (OCT2; pH 7.4) of about 25%.

`CC1(C)[C@H](C=C(Cl)Cl)[C@H]1C(=O)O[C@@H](C#N)c1cccc(Oc2ccccc2)c1` [β-cypermethrin] gave an inhibition at 100 μM (OCT1 [1]; HEK-OCT1 cells, pH 7.4, probe DAPI) of 30.1% and an inhibition at 100 μM (OCT2; [6]) of about 25%.

In the case of `CC1(C)C(C(=O)OC(C#N)c2cccc(Oc3ccccc3)c2)C1(C)C` (centres unmarked) [fenpropathrin], the inhibition at 100 μM (OCT1 [1]; pH 7.4) was 30.1 to 48.8%.

For `CC1(C)C(C=C(Cl)Cl)C1C(=O)OC(C#N)c1ccc(F)c(Oc2ccccc2)c1` (centres unmarked) [cyfluthrin], the blood concentration [2] is listed as < 5 μg/L and < 12.8 nM.

For `CC[N+](CC)(CC)CC` [TEA, tetra-ethylammonium bromide, reference compound], the “effect of pre-loading on radiolabeled TEA uptake (trans-stimulation assay)” value (OCT1 [3]) was “trans-stimulation”.

In the case of `Cc1c(COC(=O)[C@@H]2[C@H](/C=C(\Cl)C(F)(F)F)C2(C)C)cccc1-c1ccccc1` (racemic) [bifenthrin], the “effect on OCT1 activity” value (OCT1 [1]) was “failed to significantly alter”.

For `CC(C)[C@H](Nc1ccc(C(F)(F)F)cc1Cl)C(=O)OC(C#N)c1cccc(Oc2ccccc2)c1` (some centres unmarked) [fluvalinate], the “effect on P-gp activity” value (P-gp [4]) is listed as “did not alter” and the “effect on P-gp activity or ATPase activity” value (P-gp [5]) is listed as “inhibit”.

In the case of `CC1(C)C(C=C(Cl)Cl)C1C(=O)OC(C#N)c1cccc(Oc2ccccc2)c1` (centres unmarked) [cypermethrin], the “effect on P-gp activity” value (P-gp [4]) is given as “did not alter” and the blood concentration [2] is given as < 5 μg/L and < 12.8 nM.
